We go through one molecule from publication PMC8704911, “Novel Combinatorial Strategy Using Thermal Inkjet Bioprinting, Chemotherapy, and Radiation on Human Breast Cancer Cells; an In-Vitro Cell Viability Assessment” (Materials, 2021).

Like-named read-outs stand apart in the source and are kept apart here.

For assay [1], the system named is MDA-MB-231 cells. As to conditions: H2O2 exposure, RT = 20 Gy (table head; Table 6 title says 10 Gray in 3 fractions).
The subject of assay [2] is MCF7 cells. As to conditions: H2O2 exposure. The protocol:
PD 0332991 HCL (Palbociclib) and letrozole (Let; Formula: C17H11N5) were obtained from Fisher Scientific (Waltham, MA, USA). Palbociclib was dissolved in dimethyl sulfoxide (DMSO) to obtain a stock solution of 1 mM. Letrozole was dissolved in DMSO as a 100 mM stock solution. Drugs were serially diluted to determine the cytotoxic concentration 50% (CC50) of the TIB and manually seeded cell samples required to kill 50% of the cell population. Additionally, the CC50 values were determined by using the cytotoxicity values obtained experimentally and the linear interpolator webpage (https://www.johndcook.com/interpolator.html (accessed on 16 December 2021)) as previously described. […] TIB and MS MCF7 cells were incubated for 24 h prior to drug exposure. The same procedure explained in Section 2.5 was followed to determine cell viability.
Approximately, 1.2 × 10^6 cells/mL were resuspended in 1x PBS and used as the bioink cell solution. Modified inkjet cartridges were sonicated in deionized water for 15 min and tested in a previously modified thermal inkjet printer (HP Deskjet 340 Printer, HP, Palo Alto, CA, USA) inside of a biological safety cabinet. Next, 100 µL of cell solution was added to a modified sterile inkjet printer cartridge. The cell solution was bioprinted over one-half of the 96-well plate containing 200 µL of pre-incubated media. Manually seeded cells (MS) were added to the other half of the 96-well plate. Both TIB and MS cells were incubated immediately after with two media changes first at three days post bioprinting and then prior to the drug treatments.
Thermal inkjet bioprinted and manually seeded MCF7 cells were incubated for 5 days post bioprinting with two media changes to allow cells to settle and grow in their new environment. On the 5th day, each well-containing cell was adjusted to 10, 50, 100, and 150 µM PD and 10 µM Let. Letrozole remained constant for all treatments at 10 µM and is referred to as ##.# µM PD-Let. After 12 h post inoculation then at 24-h intervals for five consecutive days, all PD-Let-treated and non-treated cells were exposed to fractionated irradiation (RT) of 2, 4 (twice), and 5 (twice) Gray (Gy) for a cumulative dose of 10 and 20 Gy. Cell media was replenished after cumulative irradiation exposure of 10 Gy.
Cytotoxicity was assessed using an automated live-cell differential nuclear staining (DNS) imaging assay. […] Cytotoxicity was evaluated 12 h post irradiation by using the live-cell differential nuclear staining […] assay utilizing Hoechst 33342 and propidium iodide (PI) stains as previously described. […] Images of cells from individual wells used to quantify their viability profiles were independently captured by using the IN Cell Analyzer 2000 multi-well plate reader bioimager system (GE Healthcare, Systems, Chicago, IL, USA). […]

Assay [3] has as its system MCF-10A cells. As to conditions: H2O2 exposure.

Regarding `OO` [H2O2], the “Mean % of Live Cells MS” value is 0.4% in assay [1]; 15.4% in assay [2] (RT = 10 gray in 3 fractions); 0.3% in assay [2] (RT = 20 gray in 5 fractions); 0.00% in assay [3] (RT = 0); 1.9% in assay [3] (RT = 20 Gray in 5 fractions). Also, the “Mean % of Live Cells TIB” value in assay [1] came out at 0.0%; in assay [2] (RT = 10 gray in 3 fractions), 12.1%; in assay [2] (RT = 20 gray in 5 fractions), 0.0%; in assay [3] (RT = 0) it was 0.0%; in assay [3] (RT = 10 gray in 3 fractions, first column) it was 2.9%; in assay [3] (RT = 10 gray in 3 fractions, second column so headed), 2.8%. In assay [3] (RT = 20 Gray in 5 fractions), the “Mean % of Live Cells TIB” value was 0.0%.
